In patent US20200247815A1, “PYRAZOLYL-CONTAINING TRICYCLIC DERIVATIVE, PREPARATION METHOD THEREFOR AND USE THEREOF” (Jiangsu Hansoh Pharmaceutical Group Co., Ltd., priority 2017, published 2020):

Key:
ERK-1 kinase = target: T1, ERK-1 kinase (Homo sapiens, UniProt P27361); assay: Inhibition of ERK-1 kinase activity (LANCE Ultra TR-FRET); format: biochemical; conditions: ERK1 enzyme 0.4 nM, ATP 38.15 μM
T1 construct: purchased Invitrogen PV3311
Experimental: (§1) The object of this test example is to determine the inhibition effect of the compound on ERK-1 kinase activity. In vitro ERK-1 kinase analysis was carried out by using LANCE Ultra (Perkin Elmer) method. The reaction (reaction system 10 μL) was conducted by adding 2.5 μL of test compound/DMSO (final 4%, V/V, diluted to 10 concentrations (400 nM to 0.02 nM) using a 1:3 dilution scheme), 5 μL of a mixed solution of ERK1 enzyme (Invitrogen, # PV3311, final concentration: 0.4 nM) and substrate Ulight-MBP peptide (Perkin Elmer, # TRF0109-M, final concentration: 0.5 μM) formulated with a kinase buffer (50 mM Hepes pH 7.4, 10 mM MgCl2, 1 mM EGTA, 0.01% Triton X-100, 2 mM DTT) and 2.5 μL of ATP solution (Invitrogen, # PV3227, final concentration: 38.15 μM) formulated with the same buffer successively to a 384-well plate (Perkin Elmer OPTIPLATE™) and mixing well. The reaction mixture was incubated at room temperature for 60 minutes. The reaction was stopped by adding 1× LANCE Detection buffer (PerkinElmer # CR97-100) diluted with ultra-pure water, mM EDTA (Invitrogen #15575038) and 1 nM Eu-anti-p-MBP (PerkinElmer # TRF0201-M) antibody in 10 μL/well. The plate was incubated at room temperature for 60 minutes. Excitation reading was performed on Synergy H1 Hybird Reader, H1MFD (Biotek) with an excitation wavelength of 320 nm. TR-FRET rate was calculated by dividing the acceptor emission signal (signal value at 665 nM) by the Eu donor emission signal (signal value at 615 nM). The inhibition TR-FRET rate of the well treated by the compound was calculated relative to the Max signal (DMSO control) and Min signal (no enzyme added) control wells on the plate {% inhibition rate=100−[(test compound−Min average)]/(Max average−Min average)×100}. The 10 concentrations of the compound after 4-fold dilution of the reaction system were 100 nM to 0.005 nM. Abs_IC50 value was calculated by using GraphPad prism fits percentage inhibition rate and ten-point concentration data in a 4-parameter non-linear logic formula.

ERK-2 kinase = target: T2, ERK-2 kinase (Homo sapiens, UniProt P28482); assay: Inhibition of ERK-2 kinase activity (LANCE Ultra TR-FRET); format: biochemical; conditions: ERK-2 enzyme 0.08 nM, ATP 38.15 μM
T2 construct: purchased Invitrogen PV3313
Experimental: as §1, with “ERK-2” for “ERK-1”, “ERK-2” for “ERK1”, “PV3313,” for “PV3311,”, “0.08” for “0.4”, “EGTA” for “EGTA,”, “IX” for “1×”

T1 sequence (P27361 whole entry): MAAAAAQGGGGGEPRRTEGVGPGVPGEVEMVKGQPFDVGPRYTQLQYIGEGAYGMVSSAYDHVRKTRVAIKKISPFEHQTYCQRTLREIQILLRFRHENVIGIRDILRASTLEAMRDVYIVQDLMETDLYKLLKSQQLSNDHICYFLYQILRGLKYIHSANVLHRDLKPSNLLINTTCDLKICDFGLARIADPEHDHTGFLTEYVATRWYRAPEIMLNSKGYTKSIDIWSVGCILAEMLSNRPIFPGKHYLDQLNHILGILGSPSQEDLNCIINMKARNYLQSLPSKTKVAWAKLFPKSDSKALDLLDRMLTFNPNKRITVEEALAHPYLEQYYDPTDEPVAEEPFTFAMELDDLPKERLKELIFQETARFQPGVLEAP
T2 sequence (P28482 whole entry): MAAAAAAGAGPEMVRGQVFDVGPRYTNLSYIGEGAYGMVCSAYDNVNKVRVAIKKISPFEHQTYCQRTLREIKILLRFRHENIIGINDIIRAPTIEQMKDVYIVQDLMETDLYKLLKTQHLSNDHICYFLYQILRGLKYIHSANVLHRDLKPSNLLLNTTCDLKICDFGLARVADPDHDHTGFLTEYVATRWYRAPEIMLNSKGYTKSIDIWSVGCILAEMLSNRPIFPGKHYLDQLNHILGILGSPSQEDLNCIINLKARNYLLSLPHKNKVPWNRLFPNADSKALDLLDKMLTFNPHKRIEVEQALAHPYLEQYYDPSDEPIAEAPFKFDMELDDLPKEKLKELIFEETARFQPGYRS

| SMILES | IC50 (ERK-1 kinase) [nM] | IC50 (ERK-2 kinase) [nM] |
| --- | --- | --- |
| COc1ccc(CNC(=O)c2nc3cc4c(-c5ccncc5)n[nH]c4cc3[nH]2)cc1OC [Example 3, N-(3,4-dimethoxybenzyl)-3-(pyridin-4-yl)-1,7-dihydroimidazo[4,5-f]indazole-6-carboxamide] | 5.48 | 3.95 |
| Cc1ccc([C@@H](C)NC(=O)c2nc3cc4c(-c5ccncc5)n[nH]c4cc3[nH]2)cc1 [Example 6, (R)-3-(pyridin-4-yl)-N-(1-(p-tolyl)ethyl)-1,7-dihydroimidazo[4,5-f]indazole-6-carboxamide] | 2.09 | 0.84 |
| CC(NC(=O)c1nc2cc3c(-c4ccncc4)n[nH]c3cc2[nH]1)c1ccccc1 (stereo not shown) [Example 11, N-(1-phenylethyl)-3-(pyridin-4-yl)-1,7-dihydroimidazo[4,5-f]indazole-6-carboxamide] | 0.64 | 0.29 |
| COC[C@@H](NC(=O)c1nc2cc3c(-c4ccncc4)n[nH]c3cc2[nH]1)c1ccccc1 [Example 13, (S)—N-(2-methoxy-1-phenylethyl)-3-(pyridin-4-yl)-1,7-dihydroimidazo[4,5-f]indazole-6-carboxamide] | 3.01 | 1.39 |
| CC[C@@H](NC(=O)c1nc2cc3c(-c4ccncc4)n[nH]c3cc2[nH]1)c1ccccc1 [Example 17, (R)—N-(1-phenylpropyl)-3-(pyridin-4-yl)-1,7-dihydroimidazo[4,5-f]indazole-6-carboxamide] | 2.34 | 1.15 |
| O=C(N[C@H](CO)c1ccccc1)c1nc2cc3c(-c4ccncc4)n[nH]c3cc2[nH]1 [Example 20, (S)—N-(2-hydroxy-1-phenylethyl)-3-(pyridin-4-yl)-1,7-dihydroimidazo[4,5-f]indazole-6-carboxamide] | 0.22 | 0.06 |
| C[C@@H](OC(=O)c1nc2cc3c(-c4ccncc4)n[nH]c3cc2[nH]1)c1ccccc1 [Example 35, (R)-1-phenylethyl 3-(pyridin-4-yl)-1,7-dihydroimidazo[4,5-f]indazole-6-carboxylate] | 1.54 | 0.75 |
| C[C@@H](NC(=O)c1nc2cc3c(-c4ccnc(F)c4)n[nH]c3cc2[nH]1)c1ccccc1 [Example 37, (R)-3-(2-fluoropyridin-4-yl)-N-(1-phenylethyl)-1,7-dihydroimidazo[4,5-f]indazole-6-carboxamide] | 0.52 | 0.18 |
| Cc1cccc(C(C)NC(=O)c2nc3cc4c(-c5ccncc5)n[nH]c4cc3[nH]2)n1 (stereo not shown) [Example 44, N-(1-(6-methylpyridin-2-yl)ethyl)-3-(pyridin-4-yl)-1,7-dihydroimidazo[4,5-f]indazole-6-carboxamide] | 0.95 | 0.66 |
| Cc1cccc([C@@H](C)NC(=O)c2nc3cc4c(-c5ccncc5)n[nH]c4cc3[nH]2)n1 [Example 47, (R)—N-(1-(6-methylpyridin-2-yl)ethyl)-3-(pyridin-4-yl)-1,7-dihydroimidazo[4,5-f]indazole-6-carboxamide] | 0.49 | 0.17 |
| CC(NC(=O)c1nc2cc3c(-c4ccncc4)n[nH]c3cc2[nH]1)c1cnccn1 (stereo not shown) [Example 51, N-(1-(pyrazin-2-yl)ethyl)-3-(pyridin-4-yl)-1,7-dihydroimidazo[4,5-f]indazole-6-carboxamide] | 2.42 | 0.91 |
| C[C@@H](NC(=O)c1nc2cc3c(-c4ccncn4)n[nH]c3cc2[nH]1)c1ccccc1 [Example 57, (R)—N-(1-phenylethyl)-3-(pyrimidin-4-yl)-1,7-dihydroimidazo[4,5-f]indazole-6-carboxamide] | 3.51 | 1.43 |
| C[C@@H](NC(=O)c1nc2cc3c(-c4ccncc4)n[nH]c3cc2[nH]1)c1ccc(F)c(Cl)c1 [Example 63, (R)—N-(1-(3-chloro-4-fluorophenyl)ethyl)-3-(pyridin-4-yl)-1,7-dihydroimidazo[4,5-f]indazole-6-carboxamide] | 2.93 | 2.88 |
| O=C(c1nc2cc3c(-c4ccncc4)n[nH]c3cc2[nH]1)N1C[C@@H]1c1ccccc1 [Example 65, (S)-(2-Phenylaziridin-1-yl)(3-(pyridin-4-yl)-1,7-dihydroimidazo[4,5-f]indazol-6-yl)methanone] | 3.73 | 1.58 |
| C[C@@H](CNC(=O)c1nc2cc3c(-c4ccncc4)n[nH]c3cc2[nH]1)c1ccccc1 [Example 66, (R)—N-(2-phenylpropyl)-3-(pyridin-4-yl)-1,7-dihydroimidazo[4,5-f]indazole-6-carboxamide] | 1.52 | 0.83 |

Continued, values first:

| IC50 (ERK-1 kinase) [nM] | IC50 (ERK-2 kinase) [nM] | SMILES |
| --- | --- | --- |
| 8.6 | 3.13 | C[C@@H](NC(=O)c1nc2cc3c(-c4ccncc4)n[nH]c3cc2[nH]1)c1ccccn1 [Example 9, (R)—N-(1-(pyridin-2-yl)ethyl)-3-(pyridin-4-yl)-1,7-dihydroimidazo[4,5-f]indazole-6-carboxamide] |
| 9.48 | 5.07 | C[C@@H](NC(=O)c1nc2cc3c(-c4ccncc4)n[nH]c3cc2[nH]1)c1ccc([N+](=O)[O-])cc1 [Example 14, (R)—N-(1-(4-nitrophenyl)ethyl)-3-(pyridin-4-yl)-1,7-dihydroimidazo[4,5-f]indazole-6-carboxamide] |
| 6.41 | 2.72 | C[C@@H](NC(=O)c1nc2cc3c(-c4ccncc4)n[nH]c3cc2[nH]1)c1ccc(Br)cc1 [Example 15, (R)—N-(1-(4-bromophenyl)ethyl)-3-(pyridin-4-yl)-1,7-dihydroimidazo[4,5-f]indazole-6-carboxamide] |
| 1 | 0.73 | C[C@@H](NC(=O)c1nc2cc3c(-c4ccncc4)n[nH]c3cc2[nH]1)c1cccc(C(F)(F)F)c1 [Example 16, (R)-3-(pyridin-4-yl)-N-(1-(3-(trifluoromethyl)phenyl)ethyl)-1,7-dihydroimidazo[4,5-f]indazole-6-carboxamide] |
| 0.79 | 0.34 | N#C[C@@H](NC(=O)c1nc2cc3c(-c4ccncc4)n[nH]c3cc2[nH]1)c1ccccc1 [Example 34, (S)—N-(cyano(phenyl)methyl)-3-(pyridin-4-yl)-1,7-dihydroimidazo[4,5-f]indazole-6-carboxamide] |
| 3.3 | 1.7 | C[C@@H](NC(=O)c1nc2cc3c(-c4ccncc4)n[nH]c3c(Cl)c2[nH]1)c1ccccc1 [Example 46, (R)-8-chloro-N-(1-phenylethyl)-3-(pyridin-4-yl)-1,7-dihydroimidazo[4,5-f]indazole-6-carboxamide] |
| 1.44 | 0.69 | C[C@H](CNC(=O)c1nc2cc3c(-c4ccncc4)n[nH]c3cc2[nH]1)c1ccccc1 [Example 67, (S)—N-(2-phenylpropyl)-3-(pyridin-4-yl)-1,7-dihydroimidazo[4,5-f]indazole-6-carboxamide] |
| 2.18 | 0.8 | O=C(NC(CCO)c1ccccc1)c1nc2cc3c(-c4ccncc4)n[nH]c3cc2[nH]1 (stereo not shown) [Example 71, N-(3-hydroxy-1-phenylpropyl)-3-(pyridin-4-yl)-1,7-dihydroimidazo[4,5-f]indazole-6-carboxamide] |
